Results on 29 compounds are retold here after ChEMBL document CHEMBL2401653, “Synthesis, structure-property relationships and pharmacokinetic evaluation of ethyl 6-aminonicotinate sulfonylureas as antagonists of the P2Y₁₂ receptor” (Eur J Med Chem, 2013).

Series [1] in a line: 1-octanol-phosphate buffer distribution coefficient, log D of the compound at pH 7.4 after 2 days by shake flask method. The series is classed as physicochemical.
Series [2] is described as follows: Stability of the compound in MeCN assessed as compound remaining at room temperature. It counts as physicochemical.
Series [3] has as its target T1, P2Y purinoceptor 12 (Homo sapiens, UniProt Q9H244).
For series [4], the target named is T1, P2Y purinoceptor 12. The source holds these as a separate data set.
Description: Displacement of [125I]-AZ11931285 from P2Y12 receptor (unknown origin) after 1 hr by scintillation counting analysis
The test system of series [5] is Liver microsomes. In words: Intrinsic clearance in rat liver microsomes at 1 umol/L by LC/MS analysis in presence of NADPH. It counts as ADME, Microsome. The note with it: 1 µM. On the technique in general: Microsomes from liver hold many membrane-bound enzymes, among them those of drug oxidation.
Series [6] can be described thus: Apparent Permeability across apical to basolateral side in human Caco2 cells at 1 to 10 uM measured at 30 to 90 mins by LC/MS analysis. The series is classed as ADME, cell-based. The note with it: Caco-2. (Caco-2 monolayers are a common model of the intestinal barrier.)
Series [7] concerns Liver microsomes. In words: Intrinsic clearance in human liver microsomes at 1 umol/L by LC/MS analysis in presence of NADPH. The series is classed as ADME, Microsome. The note with it: 1 µM.

In general, logD refers to lipophilicity at a set pH, counting ionised and neutral species. Low readings indicate a more hydrophilic compound, high ones a more lipophilic compound. As usually defined, the IC50 is the concentration that inhibits the measured activity by half. A word on the Papp A→B: it is how fast a substance crosses the layer from the apical side.

T1 sequence (Q9H244 whole entry): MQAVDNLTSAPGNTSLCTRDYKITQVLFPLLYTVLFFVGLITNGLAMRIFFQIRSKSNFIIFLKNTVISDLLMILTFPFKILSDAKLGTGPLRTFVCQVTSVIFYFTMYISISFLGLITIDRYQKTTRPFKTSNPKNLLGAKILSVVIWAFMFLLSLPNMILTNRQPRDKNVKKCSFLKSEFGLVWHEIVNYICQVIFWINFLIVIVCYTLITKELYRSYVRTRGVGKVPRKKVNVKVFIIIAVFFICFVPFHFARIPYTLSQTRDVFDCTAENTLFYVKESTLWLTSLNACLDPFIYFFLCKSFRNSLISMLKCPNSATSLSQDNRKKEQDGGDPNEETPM

Consider `CCOC(=O)c1cnc(N2CCN(C(=O)Nc3ccccc3)CC2)c(C#N)c1`, for which the logD at 48 h in series [1] turned out to be 3.7. Also, the Stability entry in series [2] was “Stable”.
With `CCOC(=O)c1cnc(N2CCN(C(=O)Nc3ccccc3)CC2)c(Cl)c1`, the Stability entry in series [2] is reported as “Stable”.
The same measure, in the same setting: to `CCOC(=O)c1cnc(N2CCN(C(=O)Nc3ccccc3C)CC2)c(Cl)c1` belongs “Stable”.
Consider `CCOC(=O)c1cnc(N2CCN(C(=O)Nc3ccc(C)cc3)CC2)c(Cl)c1`, for which the Stability entry in series [2] is recorded as “Stable”.
In series [1], `CCOC(=O)c1cc(C#N)c(N2CCN(C(=O)NCc3ccc(F)cc3)CC2)nc1C(F)(F)F` displayed a logD at 48 h of 5. In series [2], the Stability result is given as “Stable”.
For the compound `CCOC(=O)c1cc(C#N)c(N2CCCN(C(=O)NS(=O)(=O)c3ccc(Cl)s3)CC2)nc1C`, the IC50 amounted to 240 nM against P2Y purinoceptor 12 [3] and 630 nM against P2Y purinoceptor 12 [4]. Moreover, the logD at 48 h in series [1] was found to be 0.9. In addition, the Stability result in series [2] is reported as “Stable”.
As for `CCOC(=O)c1cc(C#N)c(N2C[C@@H]3C[C@H]2CN3C(=O)NS(=O)(=O)c2ccc(Cl)s2)nc1C`, the IC50 against P2Y purinoceptor 12 [3] came to 690 nM; against P2Y purinoceptor 12 [4] it was 2900 nM. The Stability entry in series [2] was “Stable”.
Turning to `CCOC(=O)c1cc(C#N)c(N2CC3CN(C(=O)NS(=O)(=O)c4ccccc4)CC3C2)nc1C` (configuration not stated), the IC50 against P2Y purinoceptor 12 [3] is 580 nM; on P2Y purinoceptor 12 [4], 240 nM. Further, the logD at 48 h in series [1] stood at 0.4. The Stability result in series [2] is listed as “Stable”. Besides, the Intrinsic clearance with Liver microsomes [5] is under 19 µL/min/mg. Further, the Papp A→B at up to 10 µM in series [6] stood at 0.39 ×10⁻⁶ cm/s. The Intrinsic clearance (CLint) in the series on Liver microsomes [7] was under 13 µL/min/mg.
With `COC(=O)c1cnc(N2CCN(C(=O)NS(=O)(=O)c3ccc(Cl)s3)CC2)c(Cl)c1`, the IC50 worked out at 3200 nM against P2Y purinoceptor 12 [3] and 650 nM against P2Y purinoceptor 12 [4]. In series [1], this compound registered a logD at 48 h of 0.9. Besides, the Stability result in series [2] is “Stable”.
For the compound `CCCOC(=O)c1cnc(N2CCN(C(=O)NS(=O)(=O)c3ccc(Cl)s3)CC2)c(Cl)c1`, the figures for the IC50 against P2Y purinoceptor 12 [3] and on P2Y purinoceptor 12 [4] were 240 nM and 210 nM, respectively. The compound also displayed a logD at 48 h in series [1] of 1.6. The Stability entry in series [2] is recorded as “Stable”.
As for `CCCCOC(=O)c1cnc(N2CCN(C(=O)NS(=O)(=O)c3ccc(Cl)s3)CC2)c(Cl)c1`, the IC50 was determined as 150 nM at P2Y purinoceptor 12 [3] and 95 nM against P2Y purinoceptor 12 [4]. In addition, the logD at 48 h in series [1] worked out at 2.3. The Stability result in series [2] is on record as “Stable”. Besides, the Papp A→B at up to 10 µM in series [6] turned out to be 0.5 ×10⁻⁶ cm/s. Moreover, the Intrinsic clearance (CLint) with Liver microsomes [7] is over 70 µL/min/mg.
As to `CC(C)OC(=O)c1cnc(N2CCN(C(=O)NS(=O)(=O)c3ccc(Cl)s3)CC2)c(Cl)c1`, the IC50 on P2Y purinoceptor 12 [3] is 530 nM; at P2Y purinoceptor 12 [4] it was 250 nM. For the same compound, the logD at 48 h in series [1] amounted to 1.5. The Stability result in series [2] was “Stable”. Further, the Intrinsic clearance in the series with Liver microsomes [5] is over 104 µL/min/mg. In addition, in the series on Liver microsomes [7], the Intrinsic clearance (CLint) was over 70 µL/min/mg.
Regarding `CC(C)CCOC(=O)c1cnc(N2CCN(C(=O)NS(=O)(=O)c3ccc(Cl)s3)CC2)c(Cl)c1`, the IC50 against P2Y purinoceptor 12 [3] was 110 nM; against P2Y purinoceptor 12 [4] it was 140 nM. In series [1], this compound showed a logD at 48 h of 2.7. Moreover, in series [2], the Stability entry is “Stable”. Besides, in series [6], the Papp A→B at up to 10 µM is 0.44 ×10⁻⁶ cm/s. The Intrinsic clearance (CLint) with Liver microsomes [7] is over 70 µL/min/mg.
Consider `CCCC(=O)c1cnc(N2CCN(C(=O)NS(=O)(=O)c3ccc(Cl)s3)CC2)c(Cl)c1`, for which the IC50 against P2Y purinoceptor 12 [3] came to 890 nM; against P2Y purinoceptor 12 [4], 560 nM. This compound returned a pH-dependent lipophilicity (logD) at 48 h in series [1] of 1.3. Moreover, the Stability entry in series [2] is on record as “Stable”. The Intrinsic clearance in the series on Liver microsomes [5] is over 104 µL/min/mg. The Papp A→B at up to 10 µM in series [6] amounted to 0.16 ×10⁻⁶ cm/s.
On to `O=C(c1cnc(N2CCN(C(=O)NS(=O)(=O)c3ccc(Cl)s3)CC2)c(Cl)c1)C1CC1`, for which the IC50 was found to be 1300 nM against P2Y purinoceptor 12 [3] and 420 nM on P2Y purinoceptor 12 [4]. Moreover, in series [1], the logD at 48 h came out at 1.2. Also, the Stability result in series [2] is “Stable”. Besides, in the series on Liver microsomes [5], the Intrinsic clearance is under 19 µL/min/mg. Also, the Papp A→B at up to 10 µM in series [6] was 0.12 ×10⁻⁶ cm/s. Also, the Intrinsic clearance (CLint) in the series with Liver microsomes [7] was under 13 µL/min/mg.
As to `CCCS(=O)(=O)c1cnc(N2CCN(C(=O)NS(=O)(=O)c3ccc(Cl)s3)CC2)c(Cl)c1`, the IC50 on P2Y purinoceptor 12 [3] was determined as 14000 nM; against P2Y purinoceptor 12 [4] it was 9300 nM. For the same compound, the Stability entry in series [2] was “Stable”.
As to `CCOC(=O)c1ccc(N2CCN(C(=O)NS(=O)(=O)c3ccc(Cl)s3)CC2)c(Cl)c1`, the IC50 worked out at 1800 nM against P2Y purinoceptor 12 [3] and 660 nM on P2Y purinoceptor 12 [4]. The same compound came in with a logD at 48 h in series [1] of 1.5. Moreover, the Stability entry in series [2] is listed as “Stable”. Besides, the Intrinsic clearance in the series on Liver microsomes [5] was over 104 µL/min/mg.
On to `C=C(NC(=O)N1CCN(c2ncc(C(=O)OCC)cc2Cl)CC1)c1ccccc1`, for which the IC50 on P2Y purinoceptor 12 [3] came to 1700 nM; against P2Y purinoceptor 12 [4] it was 2400 nM. For the same compound, the Stability entry in series [2] is recorded as “Stable”.
As for `CCOC(=O)c1cc(C#N)c(N2CCN(C(=O)NS(=O)(=O)c3ccccc3C)CC2)nc1C(F)(F)F`, the IC50 was 380 nM on P2Y purinoceptor 12 [3] and 430 nM at P2Y purinoceptor 12 [4]. Besides, in series [2], the Stability entry is recorded as “Stable”.
The corresponding values for `CCOC(=O)c1cc(C#N)c(N2CCN(C(=O)NS(=O)(=O)c3ccccc3Cl)CC2)nc1C(F)(F)F` are 470 nM, 690 nM and “Stable”.
For the compound `CCOC(=O)c1cc(C#N)c(N2CCN(C(=O)NS(=O)(=O)c3ccc(Cl)cc3)CC2)nc1C(F)(F)F`, the IC50 against P2Y purinoceptor 12 [3] was determined as 97 nM; against P2Y purinoceptor 12 [4] it was 68 nM. The Stability entry in series [2] is given as “Stable”. The Intrinsic clearance in the series on Liver microsomes [5] is over 104 µL/min/mg. Besides, the Papp A→B at up to 10 µM in series [6] was found to be 0.13 ×10⁻⁶ cm/s. Also, the Intrinsic clearance (CLint) in the series on Liver microsomes [7] is over 70 µL/min/mg.
Regarding `CCOC(=O)c1cc(C#N)c(N2CCN(C(=O)NS(=O)(=O)c3ccc(F)cc3)CC2)nc1C(F)(F)F`, the results for the IC50 against P2Y purinoceptor 12 [3] and at P2Y purinoceptor 12 [4] were 210 nM and 230 nM, respectively. In series [1], this compound returned a logD at 48 h of 0.4. For the same compound, in series [2], the Stability entry is on record as “Stable”. The Intrinsic clearance in the series on Liver microsomes [5] was over 104 µL/min/mg. Besides, the apical-to-basolateral permeability (Papp A→B) at up to 10 µM in series [6] is 0.053 ×10⁻⁶ cm/s.
Take `CCOC(=O)c1cnc(N2CCN(C(=O)NS(=O)(=O)c3ccccc3Cl)CC2)c(Cl)c1`: the values for the IC50 against P2Y purinoceptor 12 [3] and on P2Y purinoceptor 12 [4] were 990 nM and 870 nM, respectively. In series [1], the logD at 48 h was found to be 0.6. In addition, the Stability result in series [2] is “Stable”.
`CCOC(=O)c1cc(C#N)c(N2CC(NC(=O)NS(=O)(=O)c3ccc(Cl)cc3)C2)nc1C`: the IC50 at P2Y purinoceptor 12 [3] worked out at 78 nM; against P2Y purinoceptor 12 [4], 86 nM. In addition, the logD at 48 h in series [1] was 1.1. Moreover, the Stability entry in series [2] is on record as “Stable”. For the same compound, the Papp A→B at up to 10 µM in series [6] is 1.2 ×10⁻⁶ cm/s. The Intrinsic clearance (CLint) with Liver microsomes [7] is under 13 µL/min/mg.
For `CCOC(=O)c1cc(C#N)c(N2CCC(NC(=O)NS(=O)(=O)Cc3ccccc3)CC2)nc1C`, the 50% inhibitory concentration (IC50) against P2Y purinoceptor 12 [3] is 150 nM; against P2Y purinoceptor 12 [4], 88 nM. For the same compound, the logD at 48 h in series [1] came to 1.9. Moreover, the Stability result in series [2] was “Stable”. The Intrinsic clearance with Liver microsomes [5] was over 104 µL/min/mg. In addition, in series [6], the Papp A→B at up to 10 µM was 30 ×10⁻⁶ cm/s.
`CCOC(=O)c1cnc(N2CCN(C(=S)Nc3ccccc3)CC2)c(Cl)c1`: the IC50 against P2Y purinoceptor 12 [3] turned out to be 3700 nM; on P2Y purinoceptor 12 [4], 12000 nM. In series [2], the Stability entry is reported as “Stable”.
The corresponding values for `CCOC(=O)c1cnc(N2CCN(C(=O)NC(=O)c3ccccc3)CC2)c(Cl)c1` are 5300 nM, 9900 nM and “Stable”.
The like results for `CCOC(=O)c1cnc(N2CCN(C(=S)NC(=O)c3ccccc3)CC2)c(Cl)c1` were, in that order, 990 nM, 2400 nM and “Stable”.
Take `O=C(O)c1cnc(N2CCN(C(=O)NS(=O)(=O)c3ccccc3)CC2)c(Cl)c1`: the logD at 48 h in series [1] was under 0.5. For the same compound, in series [2], the Stability result is “Stable”. The IC50 on P2Y purinoceptor 12 [4] was over 33000 nM.
